Target: T1, Glucocorticoid Receptor (GR) (Homo sapiens, UniProt P04150)
T1 construct: purchased Invitrogen P2816
T1 sequence (P04150 1-777): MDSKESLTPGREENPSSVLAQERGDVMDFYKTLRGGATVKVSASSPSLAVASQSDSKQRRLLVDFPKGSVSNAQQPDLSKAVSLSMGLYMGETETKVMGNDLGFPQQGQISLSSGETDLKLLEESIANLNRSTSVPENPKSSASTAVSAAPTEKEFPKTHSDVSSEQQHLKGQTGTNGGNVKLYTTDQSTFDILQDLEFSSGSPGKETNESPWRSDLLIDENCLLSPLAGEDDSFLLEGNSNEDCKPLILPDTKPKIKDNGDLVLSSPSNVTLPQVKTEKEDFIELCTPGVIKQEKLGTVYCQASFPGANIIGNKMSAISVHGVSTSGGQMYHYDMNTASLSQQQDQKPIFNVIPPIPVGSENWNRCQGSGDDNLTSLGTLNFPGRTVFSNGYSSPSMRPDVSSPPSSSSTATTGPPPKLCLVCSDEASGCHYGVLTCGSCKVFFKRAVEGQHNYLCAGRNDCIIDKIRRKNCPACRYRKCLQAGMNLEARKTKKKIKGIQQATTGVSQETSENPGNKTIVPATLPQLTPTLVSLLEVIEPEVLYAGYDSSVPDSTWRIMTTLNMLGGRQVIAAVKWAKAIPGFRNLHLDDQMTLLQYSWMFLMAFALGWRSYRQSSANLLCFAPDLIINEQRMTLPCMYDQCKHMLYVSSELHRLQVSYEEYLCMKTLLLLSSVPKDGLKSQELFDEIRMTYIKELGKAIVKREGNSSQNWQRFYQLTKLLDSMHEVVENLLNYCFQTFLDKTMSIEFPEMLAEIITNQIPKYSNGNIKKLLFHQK
Experiment: GR receptor competitor assay by fluorescence polarization (Invitrogen GR competitor assay kit, cat No. P2816)
Details: 20 μM test compound solution, 10 μL per well plus 5 μL 4×GS1 and 5 μL 4×GR solution; recombinant human GR; 2 to 4 hours at room temperature; a ratio of 100% or more is indicated by 100%; read-out: GR Binding ratio (%)
Method: A detailed explanation of this matter will be described in the section of “Pharmacological Test” in Examples described below. In order to find the usefulness of the present compound as a pharmaceutical, a glucocorticoid receptor competitor assay was carried out by a fluorescence polarization method by using a glucocorticoid receptor competitor assay kit (manufactured by Invitrogen, cat No P2816) to study the glucocorticoid receptor binding activity of the present compound.
1. Evaluation Test for Binding Activity to Glucocorticoid Receptor (Hereinafter Referred to as “GR”)
In order to evaluate a binding activity to GR, a receptor competitor assay was carried out by a fluorescence polarization method. In the assay, a GR competitor assay kit (manufactured by Invitrogen, cat No. P2816) was used, and a procedure was carried out according to the protocol attached to the kit. Hereinafter, the specific method will be described.
(Preparation of Reagents)
GR screening buffer: A buffer containing 10 mM potassium phosphate (pH 7.4), 20 mM sodium molybdate (Na2MoO4), 0.1 mM ethylene diamine tetraacetic acid (EDTA), 5 mM dithiothreitol (DTT), 0.1 mM stabilizing peptide and 2% dimethylsulfoxide was prepared.
4×GS1 solution: Fluormone™ GS1, which is a fluorescent glucocorticoid ligand, was diluted with GR screening buffer, whereby a 4 nM solution was prepared.
4×GR solution: Recombinant human GR was diluted with GR screening buffer, whereby a 16 nM solution was prepared.
(Preparation of Test Compound Solution)
After a test compound was dissolved in dimethylsulfoxide, the resulting solution was diluted with GR screening buffer, whereby a 20 μM test compound solution was prepared.
(Test Method and Measurement Method)
1) The test compound solution was added in an amount of 10 μL into each well of a 384-well plate, and then, 4×GS1 solution and 4×GR solution were added in an amount of 5 μL into each well, respectively.
2) The plate was incubated in a dark place at room temperature for 2 to 4 hours.
3) By using a multimode plate reader, Analyst™ HT (manufactured by LJL Biosystems), fluorescence polarization of each well was measured. As the blank, a well containing GR screening buffer in place of the test compound and 4×GS1 solution was used.
4) The same procedure as that in the above 1) to 3) was carried out except that GR screening buffer was used in place of the test compound solution, and the obtained result was taken as the negative control.
5) The same procedure as that in the above 1) to 3) was carried out except that 2 mM dexamethasone was used in place of the test compound solution, and the obtained result was taken as the positive control.
(Calculation Equation of GR Binding Ratio)
A GR binding ratio (%) was calculated from the following equation. GR binding ratio (%)=100×[1−(fluorescence polarization of test compound solution−fluorescence polarization of positive control solution)/(fluorescence polarization of negative control solution−fluorescence polarization of positive control solution)] (Test Results and Discussion)

Row | SMILES | inhibition at 10 µM
1 | COc1ccc(OC(=O)c2ccccn2)cc1-c1ccc2c(c1COc1cc(F)ccc1C)C(C)=CC(C)(C)N2 [Compound 1-44, 5-(5-Fluoro-2-methylphenoxymethyl)-6-[2-methoxy-5-(pyridin-2-ylcarbonyloxy)phenyl]-2,2,4-trimethyl-1,2-dihydroquinoline] | 100%
2 | COc1ccc(OC(=O)c2ccncc2)cc1-c1ccc2c(c1COc1cc(F)ccc1C)C(C)=CC(C)(C)N2 [Compound 1-45, 5-(5-Fluoro-2-methylphenoxymethyl)-6-[2-methoxy-5-(pyridin-4-ylcarbonyloxy)phenyl]-2,2,4-trimethyl-1,2-dihydroquinoline] | 95%
3 | COc1cc(OC(=O)c2ccccc2OC(C)=O)ccc1-c1ccc2c(c1COc1cc(F)ccc1C)C(C)=CC(C)(C)N2 [Compound 1-50, 6-[4-(2-Acetoxybenzoyloxy)-2-methoxyphenyl]-5-(5-fluoro-2-methylphenoxymethyl)-2,2,4-trimethyl-1,2-dihydroquinoline] | 97%
4 | COc1cc(OC(=O)C2CCN(C(=O)OC(C)(C)C)CC2)ccc1-c1ccc2c(c1COc1cc(F)ccc1C)C(C)=CC(C)(C)N2 [Compound 1-51, 6-[4-(1-t-Butoxycarbonylpiperidin-4-ylcarbonyloxy)-2-methoxyphenyl]-5-(5-fluoro-2-methylphenoxymethyl)-2,2,4-trimethyl-1,2-dihydroquinoline] | 91%
5 | COc1cc(OC(=O)c2ccccc2SC)ccc1-c1ccc2c(c1COc1cc(F)ccc1C)C(C)=CC(C)(C)N2 [Compound 1-52] | 96%
6 | COc1cc(OC(=O)c2cn(C(=O)OC(C)(C)C)cn2)ccc1-c1ccc2c(c1COc1cc(F)ccc1C)C(C)=CC(C)(C)N2 [Compound 1-53, 6-[4-(1-t-Butoxycarbonylimidazol-4-ylcarbonyloxy)-2-methoxyphenyl]-5-(5-fluoro-2-methylphenoxymethyl)-2,2,4-trimethyl-1,2-dihydroquinoline] | 100%
7 | COc1cc(OC(=O)c2cscn2)ccc1-c1ccc2c(c1COc1cc(F)ccc1C)C(C)=CC(C)(C)N2 [Compound 1-54, 5-(5-Fluoro-2-methylphenoxymethyl)-6-[2-methoxy-4-(thiazol-4-ylcarbonyloxy)phenyl]-2,2,4-trimethyl-1,2-dihydroquinoline] | 100%
8 | COc1cc(OC(=O)c2cncs2)ccc1-c1ccc2c(c1COc1cc(F)ccc1C)C(C)=CC(C)(C)N2 [Compound 1-55, 5-(5-Fluoro-2-methylphenoxymethyl)-6-[2-methoxy-4-(thiazol-5-ylcarbonyloxy)phenyl]-2,2,4-trimethyl-1,2-dihydroquinoline] | 100%
9 | COc1cc(OC(=O)c2cocn2)ccc1-c1ccc2c(c1COc1cc(F)ccc1C)C(C)=CC(C)(C)N2 [Compound 1-56, 5-(5-Fluoro-2-methylphenoxymethyl)-6-[2-methoxy-4-(oxazol-4-ylcarbonyloxy)phenyl]-2,2,4-trimethyl-1,2-dihydroquinoline] | 100%
10 | COc1cc(OC(=O)c2cccc(C(C)=O)c2)ccc1-c1ccc2c(c1COc1cc(F)ccc1C)C(C)=CC(C)(C)N2 [Compound 1-58, 6-[4-(3-Acetylbenzoyloxy)-2-methoxyphenyl]-5-(5-fluoro-2-methylphenoxymethyl)-2,2,4-trimethyl-1,2-dihydroquinoline] | 100%
11 | COc1cc(OC(=O)c2ccccc2F)ccc1-c1ccc2c(c1COc1cc(F)ccc1C)C(C)=CC(C)(C)N2 [Compound 1-59, 6-[4-(2-Fluorobenzoyloxy)-2-methoxyphenyl]-5-(5-fluoro-2-methylphenoxymethyl)-2,2,4-trimethyl-1,2-dihydroquinoline] | 100%
12 | COc1cc(OC(=O)c2cccc(F)c2)ccc1-c1ccc2c(c1COc1cc(F)ccc1C)C(C)=CC(C)(C)N2 [Compound 1-60, 6-[4-(3-Fluorobenzoyloxy)-2-methoxyphenyl]-5-(5-fluoro-2-methylphenoxymethyl)-2,2,4-trimethyl-1,2-dihydroquinoline] | 100%
13 | COc1cc(OC(=O)c2ccc(C)o2)ccc1-c1ccc2c(c1COc1cc(F)ccc1C)C(C)=CC(C)(C)N2 [Compound 1-62, 5-(5-Fluoro-2-methylphenoxymethyl)-6-[2-methoxy-4-(5-methylfuran-2-ylcarbonyloxy)phenyl]-2,2,4-trimethyl-1,2-dihydroquinoline] | 100%
14 | COc1cc(OC(=O)c2cccnc2C)ccc1-c1ccc2c(c1COc1cc(F)ccc1C)C(C)=CC(C)(C)N2 [Compound 1-63, 5-(5-Fluoro-2-methylphenoxymethyl)-6-[2-methoxy-4-(2-methylpyridin-3-ylcarbonyloxy)phenyl]-2,2,4-trimethyl-1,2-dihydroquinoline] | 100%
15 | COc1cc(OC(=O)Cc2cccnc2)ccc1-c1ccc2c(c1COc1cc(F)ccc1C)C(C)=CC(C)(C)N2 [Compound 1-64, 5-(5-Fluoro-2-methylphenoxymethyl)-6-[2-methoxy-4-(pyridin-3-ylacetoxy)phenyl]-2,2,4-trimethyl-1,2-dihydroquinoline] | 100%
16 | COc1cc(OC(=O)c2ccc(C(C)=O)cc2)ccc1-c1ccc2c(c1COc1cc(F)ccc1C)C(C)=CC(C)(C)N2 [Compound 1-67, 6-[4-(4-Acetylbenzoyloxy)-2-methoxyphenyl]-5-(5-fluoro-2-methylphenoxymethyl)-2,2,4-trimethyl-1,2-dihydroquinoline] | 100%
17 | COC(=O)c1cccc(C(=O)Oc2ccc(-c3ccc4c(c3COc3cc(F)ccc3C)C(C)=CC(C)(C)N4)c(OC)c2)c1 [Compound 1-68, 5-(5-Fluoro-2-methylphenoxymethyl)-6-[2-methoxy-4-(3-methoxycarbonylbenzoyloxy)phenyl]-2,2,4-trimethyl-1,2-dihydroquinoline] | 100%
18 | COc1cc(OC(=O)c2ccc(C)nc2)ccc1-c1ccc2c(c1COc1cc(F)ccc1C)C(C)=CC(C)(C)N2 [Compound 1-69, 5-(5-Fluoro-2-methylphenoxymethyl)-6-[2-methoxy-4-(6-methylpyridin-3-ylcarbonyloxy)phenyl]-2,2,4-trimethyl-1,2-dihydroquinoline] | 100%
19 | COc1cc(OC(=O)c2cnccc2C)ccc1-c1ccc2c(c1COc1cc(F)ccc1C)C(C)=CC(C)(C)N2 [Compound 1-70, 5-(5-Fluoro-2-methylphenoxymethyl)-6-[2-methoxy-4-(4-methylpyridin-3-ylcarbonyloxy)phenyl]-2,2,4-trimethyl-1,2-dihydroquinoline] | 100%
20 | COc1cc(OC(=O)c2occc2C)ccc1-c1ccc2c(c1COc1cc(F)ccc1C)C(C)=CC(C)(C)N2 [Compound 1-71, 5-(5-Fluoro-2-methylphenoxymethyl)-6-[2-methoxy-4-(3-methylfuran-2-ylcarbonyloxy)phenyl]-2,2,4-trimethyl-1,2-dihydroquinoline] | 100%
21 | COc1cc(OC(=O)C(C)(C)C)ccc1-c1ccc2c(c1COc1cc(F)ccc1C)C(C)=CC(C)(C)N2 [Compound 1-72, 6-(4-t-Butylcarbonyloxy-2-methoxyphenyl)-5-(5-fluoro-2-methylphenoxymethyl)-2,2,4-trimethyl-1,2-dihydroquinoline] | 98%

Reference: patent US8440660B2 (Santen Pharmaceutical Co., Ltd., priority 2006, dated 2013)
